Experimental data published in patent US9926269B2, “Beta-lactam cholesterol absorption inhibitors” (Rudjer Boskovic Institute, priority 2013, dated 2018).

Experiments:
Type in all cases: cell-based
[1] = Cytotoxicity assay (MTT cell proliferation assay), MDCKII cells; settings: dog, 72 h incubation, read-out: MDCKII LC50
Protocol: (§1) The cells were grown at 37° C. in a humidified 5% CO2 incubator. Stable transfection of MDCKII cells with human NPC1L1 protein was performed using the Lipofectamine LTX (Invitrogen, USA) according to the manufecturer's protocol. Selection with 1000 μg/mL G418 (Sigma-Aldrich, Germany) was started 2 days after transfection. The concentration of G418 was decreased to 500 μg/mL after 14 days. Transfected cells were maintained in DMEM (Dulbecco's Modified Eagle Medium) containing 100 units/mL penicillin and 100 μg/mL streptomycin supplemented with 10% FCS and 500 μg/mL G418.
(§2) For the cytotoxicity determination, MDCKII, hNPC1L1/MDCKII and HepG2 cells were seeded in 96-well microtiter plates on day 0 at the density of 3000 cells/well. […] The compound cytotoxicity was assessed on day 4 performing the MTT cell proliferation assay (Sigma-Aldrich, Germany) which detects mitochondrial dehydrogenase activity in viable cells. (Mosmann, T. J. Immunol. Methods 1983, 65, 55.) The results are expressed as LC50 and the values for each compound were calculated from dose-response curves using linear regression analysis. Each concentration was tested in quadruplicate in three independent experiments (Table 1).

[2] = Cytotoxicity assay (MTT cell proliferation assay), hNPC1L1/MDCKII cells; settings: dog, MDCKII cells stably expressing human NPC1L1 (hNPC1L1/MDCKII), 72 h incubation, read-out: hNPC1L1MDCKII LC50
Protocol: as §1, §2

[3] = Cytotoxicity assay (MTT cell proliferation assay), HepG2 cells; settings: human, 72 h incubation, read-out: HepG2 LC50
Protocol: as §1, §2

[4] = tested on: MDCKII cells stably expressing human NPC1L1 (hNPC1L1/MDCKII); assay: Cytotoxicity assay (MTT cell proliferation assay), hNPC1L1/MDCKII cells; settings: 72 h incubation, read-out: hNPC1L1MDCKII LC50
Protocol: as §1, §2

Structure (SMILES)	CC50 at 72 h [1]	CC50 at 72 h [2]	CC50 at 72 h [3]	CC50 [4]
O=C1[C@H](NC[C@@H](O)c2ccc(F)cc2)[C@@H](c2ccc(O)cc2)N1c1ccc(F)cc1 [Compound 9, (3R,4R)-3-[(2S)-2-(4-fluorophenyl)-2-hydroxyethylamino]-1-(4-fluorophenyl)-4-(4-hydroxyphenyl)azetidin-2-one]	> 100 µM	> 100 µM	> 100 µM	
O=C1[C@H](NCC(O)c2ccc(F)cc2)[C@@H](c2ccc(O)cc2)N1c1ccc(F)cc1 (mixture of isomers) [8/9-70/30, (3R,4R)-3-[(2R/S)-2-(4-fluorophenyl)-2-hydroxyethylamino]-1-(4-fluorophenyl)-4-(4-hydroxyphenyl)azetidin-2-one]	> 100 µM	> 100 µM	> 100 µM	
O=C(/C=C/c1ccc(F)cc1)N[C@H]1C(=O)N(c2ccc(F)cc2)[C@@H]1c1ccc(O)cc1 [Compound 3, (E)-1-[(3R,4R)-1-(4-fluorophenyl)-4-(4-hydroxyphenyl)-2-oxo-3-azetidinylamino]-3-(4-fluorophenyl)-2-propen-1-one]				63.3 µM
O=C1[C@H](NC[C@H](O)c2ccc(F)cc2)[C@@H](c2ccc(O)cc2)N1c1ccc(F)cc1 [Compound 8, (3R,4R)-3-[(2R)-2-(4-fluorophenyl)-2-hydroxyethylamino]-1-(4-fluorophenyl)-4-(4-hydroxyphenyl)azetidin-2-one]	> 100 µM	> 100 µM	> 100 µM	
